According to patent publication US20030186423A1, “Amidase from variovorax” (Degussa AG, priority 2001, published 2003):
Blank lines part the entries; values can stand above or below the compound they belong to.

Tests used:
Assay type in all cases: biochemical, Variovorax paradoxus
D-amidase [1] = assay: Enzyme test for acid amides, activity by determination of ammonium ions with glutamate dehydrogenase; settings: substrate 40 mM
Experimental: The activity was measured by determination of the ammonium ions with glutamate dehydrogenase (Bergmeyer, H. U., and Beutler, H.-O. (1985), Ammonia. In: Methods of Enzymatic Analysis. VCH-Verlag, 3rd edition, vol. 8: 454-461, Weinheim). […] The substrates were employed in the enzyme test at 40 mM, except for succinic acid diamide and adipic acid diamide, each at 10 mM, and benzylamide at 20 mM. Since the activities were determined only at in each case one substrate concentration, relative activities are stated.
(§1) In the conversion of tert-leucinamide (gen. acid amides) by the D-amidase, the formation of ammonia or ammonium ions and tert-leucine (gen. acid) in equimolar amounts occurs. […] The change in concentration of the components participating can be measured in an enzyme test, which comprises incubation of the following test batch for 10-60 minutes at 30° C.
(§2) The enzyme test was started by addition of the substrate and the reaction was stopped by heating at 95° C. for three minutes. The analysis of the reaction products was carried out for ammonium ions by enzymatic determination of ammonium by glutamate dehydrogenase (Bergmeyer, H.,U., and Beutler, H.-O. (1985) Ammonia. In: Methods of Enzymatic Analysis. VCH-Verlag, 3rd edition, vol. 8: 454-461, Weinheim) and for D- and L-tert-leucine by means of HPLC (Bruckner, H., Wittner R., and Godel H., (1991) Fully automated high-performance liquid chromatographic separation of DL-amino acids derivatized with o-phthaldialdehyde together with N-isopropyl-cysteine. Application to food samples. Anal. Biochem. 144(1): 204-206). Batches to which no substrate were added served as controls.
(§3) The enzyme glutamate dehydrogenase (GluDH; E.C.1.4.1.3) converts 2-oxoglutarate into L-glutamate, ammonium ions being consumed and NADH being oxidized to NAD+(Bergmeyer, H.,U. and Beutler, H.-O. (1985), Ammonia. In: Methods of Enzymatic Analysis. VCH-Verlag, 3rd edition, vol. 8: 454-461, Weinheim). The amount of NADH consumed during the reaction is equivalent to the amount of ammonium ions. The change in the concentration of NADH is the measurement parameter and can be determined spectrophotometrically at a wavelength of 340 nm.
The test components were pipetted into cells of plastic (1.5 ml semimicro disposable cells, Brand) and mixed and the extinction at 340 nm was determined after 5 min. 10 μl GluDH were then added, and after the reaction had gone to completion, as a rule after 30 min, the extinction was measured again.

D-amidase [2] = assay: Enzyme test for amino acid amides and α-hydroxycarboxylic acid amides (HPLC or NH4+ determination); settings: substrate 40 mM
Experimental: For prolinamide, and the α-hydroxycarboxylic acid amides lactic acid amide (Lac-NH2) and 2-hydroxy-4-methylmercaptobutyric acid amid (MHA-NH2), the methionine-analogous α-hydroxycarboxylic acid amide, determination of the product with the previous HPLC analysis is not possible. For these substrates, the activity was determined with the aid of NH4^+ determination. […] All the substrates were employed in the enzyme test at 40 mM. In the 4th column, for further comparison the activity for the lower enantiomer has been set at 1 and a relative activity for the preferred enantiomer has been calculated therefrom.
as §1, §2
(§4) The separation and quantitative determination of the enantiomers D- and L-tert-leucine were carried out by a “chiral derivatization” on the basis of o-phthaldialdehyde (OPA)/N-isobutyryl-L-cysteine or N-isobutyryl-D-cysteine (Brückner, H.; Wittner R. and Godel H. (1991), Fully automated high-performance liquid chromatographic separation of DL-amino acids derivatized with o-Phthaldialdehyde together with N-isopropyl-cysteine. Application to food samples. Anal. Biochem. 144, 204-206). The diastereomeric isoindole derivatives formed were separated on an RP-18 (reversed phase) column and detected by fluorescence. A two-buffer system of aqueous acetate buffer and an acetonitrile/water mixture was used as the mobile phase.

D-amidase [3] = assay: Kinetic cleavage of racemic amino acid amides: enantioselectivity as a function of the conversion
Experimental: To evaluate the suitability for kinetic cleavage of racemic DL-Tle-NH2, the enantioselectivity was determined as a function of the conversion.
DL-Valin-, DL-leucin- and DL-phenylalaninamide were alos tested in this respect. For this, the enantioselectivity was determined as function of the conversion with partly purified enzyme from Variovorax paradoxus 19-3 after the 1st chromatography step.
as §4

D-amidase [4] = assay: Enzyme test for N-formylated amino acid amides, NH4+ determination with glutamate dehydrogenase
Experimental: as §3, with “The cleavage of racemic N-formylated amino acid amides was investigated by using the D-amidase according to the invention. The enzyme used was a partly purified D-amidase after the 1st chromatography step. The activity was measured by determining the NH4^+ ions with glutamate dehydrogenase (Bergmeyer, H. U., and Beutler, H.-O. (1985), Ammonia. In: Methods of Enzymatic Analysis. VCH-Verlag, 3rd edition, vol. 8: 454-461, Weinheim). The following substrates were employed in the enzyme test at 10 mM. The enzyme” for “The enzyme”

D-amidase [5] = assay: Specific activity of crude extracts and purified D-amidase for DL-Tle-NH2; settings: DL-Tle-NH2 as the substrate
Experimental: as §1, §2

Activity with respect to Tle-NH2 (D-amidase [1]; DL-Tle-NH2 = 1): 1 | Relative act. (D-amidase [1]; partly purified D-amidase after the 2nd chromatography step (0.51 U/mg)): 0.51 U/mg | Activity with respect to Tle-NH2 (D-amidase [2]; DL-Tle-NH2 = 1): 1 | Specific activity (D-amidase [2]; partly purified D-amidase after the 2nd chromatography step (0.56 U/mg), Pro-, Lac-, MHA-NH2 by NH4+ determination): 0.56 U/mg | E value (D-amidase [3]; both series of experiments (partly purified and virtually homogeneous enzyme)): greater than 100 | enantioselectivity with respect to D-Tle (D-amidase [3]; partly purified enzyme after the 1st chromatography step, conversion of greater than 45%): 96.6% | Activity with respect to Tle-NH2 (D-amidase [4]; Table 4, DL-Tle-NH2 = 100): 100% | Relative act. (D-amidase [4]; Table 4, substrate 10 mM, partly purified D-amidase after the 1st chromatography step): 200 mU/mg | Specific activity (D-amidase [5]; D-amidase after the first two purification steps): 0.68 U/mg | Specific activity (D-amidase [5]; crude extract of E. coli JM 101 expression clones): 80-210 mU/mg | Specific activity (D-amidase [5]; homogeneously purified D-amidase from Variovorax paradoxus): 1.4 U/mg
SMILES: CC(C)(C)C(N)C(N)=O (racemic) [DL-Tle-NH2, D,L-tert-Leucinamide]

E value (D-amidase [3]; conversion 3%): 190 | ee D-Val (D-amidase [3]; conversion 3%, partly purified enzyme after the 1st chromatography step): 98.9% | E value (D-amidase [3]; conversion 15%): 180 | ee D-Val (D-amidase [3]; conversion 15%, partly purified enzyme after the 1st chromatography step): 98.7% | E value (D-amidase [3]; conversion 29%): 200 | ee D-Val (D-amidase [3]; conversion 29%, partly purified enzyme after the 1st chromatography step): 98.5% | E value (D-amidase [3]; conversion 42%): 220 | ee D-Val (D-amidase [3]; conversion 42%, partly purified enzyme after the 1st chromatography step): 98.1% | E value (D-amidase [3]; conversion 50%): 140 | ee D-Val (D-amidase [3]; conversion 50%, partly purified enzyme after the 1st chromatography step): 95.1% | E value (D-amidase [3]; conversion 57%): 56 | ee D-Val (D-amidase [3]; conversion 57%, partly purified enzyme after the 1st chromatography step): 75.0% | Activity with respect to Tle-NH2 (D-amidase [4]; Table 5, DL-Val-NH2 = 100): 100% | Relative act. (D-amidase [4]; Table 5, comparison of valinamide and N-formyl-valinamide): 870 mU/mg
SMILES: CC(C)[C@H](N)C(N)=O (racemic) [DL-Val-NH2, valinamide]
